From patent publication US9598387B2 (Southern Research Institute, priority 2012, dated 2017)

Assays:
[1] = target: human D3 dopamine receptor (Homo sapiens (Human), UniProt P35462); assay: Radioligand binding (125I-IABN competition), D3; conditions: for Ki: 125I-IABN competition, HEK cell membranes expressing human D3; for D2/D3 (D3 selectivity ratio, D2 Ki/D3 Ki): calculated D2 Ki/D3 Ki
Experimental: (§1) The affinities of the target compounds were determined using radioligand binding experiments. […] Competition curves were modeled for a single site. Data from competition dose-response curves were analyzed using Tablecurve program (Jandel). IC50 values were converted to equilibrium dissociation constants (Ki values) using the Cheng and Prusoff correction.

[2] = target: human D2-long dopamine receptor (Homo sapiens (Human), UniProt P14416); assay: Radioligand binding (125I-IABN competition), D2; conditions: HEK cell membranes expressing human D2-long
Chain of human D2-long dopamine receptor (P14416 whole entry): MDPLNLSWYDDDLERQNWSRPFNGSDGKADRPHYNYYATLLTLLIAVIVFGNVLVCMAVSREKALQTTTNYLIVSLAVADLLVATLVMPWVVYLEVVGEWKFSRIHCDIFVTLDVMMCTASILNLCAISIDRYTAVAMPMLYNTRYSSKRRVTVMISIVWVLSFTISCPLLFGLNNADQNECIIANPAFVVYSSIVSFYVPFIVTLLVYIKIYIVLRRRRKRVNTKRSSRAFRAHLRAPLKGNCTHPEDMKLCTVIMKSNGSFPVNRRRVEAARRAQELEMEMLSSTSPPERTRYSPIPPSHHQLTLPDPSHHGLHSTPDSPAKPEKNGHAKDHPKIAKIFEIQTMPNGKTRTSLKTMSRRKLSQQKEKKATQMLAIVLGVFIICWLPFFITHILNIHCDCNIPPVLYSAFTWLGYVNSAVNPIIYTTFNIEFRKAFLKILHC
Experimental: as §1

human D2 receptors = human D2 receptors (Homo sapiens (Human), UniProt P14416); assay: D2 Mitogenesis Functional Assay (3H-thymidine uptake, CHOp-D2 cells); format: cell-based
Chain of human D2 receptors (P14416 whole entry): as above
Experimental: (§2) These assays are based on ^3H-thymidine uptake by cells that are proliferating.
CHO cells expressing human D2 receptors (CHOp-D2 cells) were maintained in alpha-MEM with 10% FCS, 0.05% pen-strep, and 200 μg/mL of G418. […] The cells were incubated at 37° C. in alpha-MEM with 10% FCS. After 48-72 hours, the cells were rinsed twice with serum-free alpha-MEM and incubated for 24 hours at 37° C. Serial dilutions of test compounds were made by the Biomek robotics system in serum-free alpha-MEM. In the functional assay for agonism, the medium was removed and replaced with 100 μL of test compound in serum-free alpha-MEM. In the antagonist assay, the serial dilution of the putative antagonist test compound was added in 90 μL (1.1× of final concentration) and 300 nM quinpirole (30 nM final) was added in […]. After another 24-hour incubation at 37° C., 0.25 μCi of [^3H]thymidine in alpha-MEM supplemented with 10% FCS was added to each well and the plates were further incubated for 2 hours at 37° C. The cells were trypsinized by addition of 10× trypsin solution (1% trypsin in calcium-magnesium-free phosphate-buffered saline) and the plates were filtered and counted as usual. Quinpirole was run as an internal control and dopamine was included for comparative purposes. Butaclamol was run as the standard antagonist.

D3R = D3R (Homo sapiens (Human), UniProt P35462); assay: D3 Mitogenesis Functional Assay (3H-thymidine uptake, CHOp-D3 cells); format: cell-based; conditions: for Emax at 10 µM: % maximum stimulation vs quinpirole (100%), read-out: D3 Agonist Emax; for IC50: inhibition of quinpirole (30 nM final) stimulation of mitogenesis, read-out: D3 Antagonist IC50
Chain of D3R (P35462 whole entry): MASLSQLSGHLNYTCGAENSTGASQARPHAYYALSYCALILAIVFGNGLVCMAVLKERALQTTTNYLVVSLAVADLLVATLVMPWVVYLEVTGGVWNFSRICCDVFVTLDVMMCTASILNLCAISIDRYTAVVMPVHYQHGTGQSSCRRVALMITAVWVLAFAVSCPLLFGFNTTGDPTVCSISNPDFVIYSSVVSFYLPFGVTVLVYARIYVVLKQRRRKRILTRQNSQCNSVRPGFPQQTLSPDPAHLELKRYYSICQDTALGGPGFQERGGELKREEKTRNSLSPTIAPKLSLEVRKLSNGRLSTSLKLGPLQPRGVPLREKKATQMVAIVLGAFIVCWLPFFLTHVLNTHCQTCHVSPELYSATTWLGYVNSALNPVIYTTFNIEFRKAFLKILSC
Experimental: as §2
CHO cells expressing human D3 receptors (CHOp-D3 cells) were maintained in alpha-MEM with 10% fetal bovine serum (FBS, Atlas Biologicals), 0.05% pen-strep, and 200 μg/ml of G418. […] The cells are incubated at 37° C. in alpha-MEM with 10% FBS. After 48-72 hours, the cells are rinsed twice with serum-free alpha-MEM and incubated for 24 hours at 37° C. Serial dilutions of test compounds were made by the Biomek robotics system in serum-free alpha-MEM. In the functional assay for agonism, the medium is removed and replaced with 100 μL of test compound in serum-free alpha-MEM. In the antagonist assay, the serial dilution of the putative antagonist test compound was added in 90 μL (1.1× of final concentration) and 300 nM quinpirole (30 nM final) was added in 10 uL. After another 16-hour incubation at 37° C., 0.25 μCi of [^3H]thymidine in alpha-MEM supplemented with 10% FBS was added to each well and the plates were further incubated for 2 hours at 37° C. The cells were trypsinized by addition of 10× trypsin solution (1% trypsin in calcium-magnesium-free phosphate-buffered saline) and the plates were filtered and counted as usual. Quinpirole was run as an internal control and dopamine was included for comparative purposes. Butaclamol was run as the standard antagonist. Data were analyzed using GraphPAD Prism and agonist potency was expressed as EC50 values or % stimulation and antagonist potency was expressed as IC50 values. In these assays, based on the % maximum stimulation as compared to the standard agonist quinpirole (100%) the compounds were classified into following categories: ≧90% full agonist; 70-90% partial to full agonist; <70% partial agonist; 0-20% potential antagonist.

Chain of human D3 dopamine receptor (P35462 whole entry): as above

For `Cc1nc(N2CCN(CCCCNC(=O)N3CCc4[nH]c5ccc(C(F)(F)F)cc5c4C3)CC2)cc(C(C)(C)C)n1` [Compound 98, N-(4-(4-(6-(tert-Butyl)-2-methylpyrimidin-4-yl)piperazin-1-yl)butyl)-8-(trifluoromethyl)-3,4-dihydro-1H-pyrido[4,3-b]indole-2(5H)-carboxamide], the Ki [1] was 1020 ± 201 nM, the “D2/D3 (D3 selectivity ratio, D2 Ki/D3 Ki)” value [1] was 6 and the Ki [2] was 6400 ± 1100 nM.

For `O=C(NCCCCN1CCN(c2cc(C(F)(F)F)nc3ccccc23)CC1)N1CCN(c2ccccc2)CC1` [Compound 99, 4-Phenyl-N-(4-(4-(2-(trifluoromethyl)quinolin-4-yl)piperazin-1-yl)butyl)piperazine-1-carboxamide], the Ki [1] was 299 ± 37.8 nM, the “D2/D3 (D3 selectivity ratio, D2 Ki/D3 Ki)” value [1] was 24 and the Ki [2] was 7250 ± 754 nM.

In the case of `O=C(NCCCCN1CCN(c2cc(C(F)(F)F)nc3ccccc23)CC1)N1CCC(c2ccccc2)CC1` [Compound 100, 4-Phenyl-N-(4-(4-(2-(trifluoromethyl)quinolin-4-yl)piperazin-1-yl)butyl)piperidine-1-carboxamide], the Ki [1] is reported as 5320 ± 2220 nM, the “D2/D3 (D3 selectivity ratio, D2 Ki/D3 Ki)” value [1] is reported as greater than 18 and the Ki [2] is reported as greater than 100000 nM.

`CC(C)(C)c1nc(N2CCN(CCCCNC(=O)N3CCN(c4ccccc4)C(=O)C3)CC2)cc(C(F)(F)F)n1` [Compound 102, N-(4-(4-(2-(tert-Butyl)-6-(trifluoromethyl)pyrimidin-4-yl)piperazin-1-yl)butyl)-3-oxo-4-phenylpiperazine-1-carboxamide] was tested, and the Ki [1] was 19.2 nM, the “D2/D3 (D3 selectivity ratio, D2 Ki/D3 Ki)” value [1] was 50 and the Ki [2] was 962 nM.

With `O=C(NCCCCN1CCN(c2ccnc3cc(Cl)ccc23)CC1)C1CCC(c2ccccc2)CC1` (stereo not drawn) [Compound 105, N-(4-(4-(7-Chloroquinolin-4-yl)piperazin-1-yl)butyl)-4-phenylcyclohexanecarboxamide] the Ki [1] was 34.5 ± 7.6 nM, the “D2/D3 (D3 selectivity ratio, D2 Ki/D3 Ki)” value [1] was 29 and the Ki [2] was 1020 ± 68.2 nM.

For `O=C(NCCCCN1CCN(c2ccc3ccccc3n2)CC1)C1CCC(c2ccccc2)CC1` (stereo not drawn) [Compound 106, 4-Phenyl-N-(4-(4-(quinolin-2-yl)piperazin-1-yl)butyl)cyclohexanecarboxamide], the Ki [1] was 62 ± 12.7 nM, the “D2/D3 (D3 selectivity ratio, D2 Ki/D3 Ki)” value [1] was 50 and the Ki [2] was 3090 ± 768 nM.

In the case of `Cc1cc(N2CCN(CCCCNC(=O)C3CCN(c4ccc(C(F)(F)F)cn4)CC3)CC2)nc(C(C)(C)C)n1` [Compound 107, N-(4-(4-(2-(tert-Butyl)-6-methylpyrimidin-4-yl)piperazin-1-yl)butyl)-1-(5-(trifluoromethyl)pyridin-2-yl)piperidine-4-carboxamide], the Ki [1] is reported as 30.6 ± 7.4 nM, the “D2/D3 (D3 selectivity ratio, D2 Ki/D3 Ki)” value [1] is reported as 32 and the Ki [2] is reported as 970 ± 137 nM.

Work on `CC(C)(C)c1nc(N2CCN(CCCCNC(=O)C3CCN(Cc4ccccc4)CC3)CC2)cc(C(F)(F)F)n1` [Compound 109, 1-Benzyl-N-(4-(4-(2-(tert-butyl)-6-(trifluoromethyl)pyrimidin-4-yl)piperazin-1-yl)butyl)piperidine-4-carboxamide] yielded a Ki [1] of 35.6 ± 1.4 nM and a Ki [2] of 337 nM.

In the case of `CC(C)(C)c1nc(N2CCN(CCCCNC(=O)C3CCN(c4ccc(C(F)(F)F)cn4)CC3)CC2)cc(C(F)(F)F)n1` [Compound 110, N-(4-(4-(2-(tert-Butyl)-6-(trifluoromethyl)pyrimidin-4-yl)piperazin-1-yl)butyl)-1-(5-(trifluoromethyl)pyridin-2-yl)piperidine-4-carboxamide], the Ki [1] is reported as 167 ± 8.5 nM, the “D2/D3 (D3 selectivity ratio, D2 Ki/D3 Ki)” value [1] is reported as 11 and the Ki [2] is reported as 1800 ± 257 nM.

For `CC(C)(C)c1nc(N2CCN(CCCCNC(=O)c3cn4cccnc4n3)CC2)cc(C(F)(F)F)n1` [Compound 114, N-(4-(4-(2-(tert-Butyl)-6-(trifluoromethyl)pyrimidin-4-yl)piperazin-1-yl)butyl)imidazo[1,2-a]pyrimidine-2-carboxamide], the Ki [1] was 11.8 ± 1.1 nM, the “D2/D3 (D3 selectivity ratio, D2 Ki/D3 Ki)” value [1] was 37 and the Emax at 10 µM (human D2 receptors; at 10 μM, % maximum stimulation vs quinpirole (100%), read-out: D2 Agonist Emax) was less than 1%. For the same compound, the IC50 (human D2 receptors; inhibition of quinpirole (30 nM final) stimulation of mitogenesis, read-out: D2 Antagonist IC50) was 205 ± 48 nM, the Ki [2] was 436 ± 43.4 nM and the Emax at 10 µM (D3R) was 14%. It also gave an IC50 (D3R) of 51 ± 21 nM.

For `O=C(NCCCCN1CCN(c2ccnc3ccccc23)CC1)c1cn2ccccc2n1` [Compound 117, N-(4-(4-(Quinolin-4-yl)piperazin-1-yl)butyl)imidazo[1,2-a]pyridine-2-carboxamide], the Ki [1] was 20.5 ± 3.5 nM, the “D2/D3 (D3 selectivity ratio, D2 Ki/D3 Ki)” value [1] was 28 and the Ki [2] was 572 nM. The Emax at 10 µM (D3R) was less than 20%, the IC50 (D3R) was 120 ± 22 nM and the “D3 Antagonist Imax” value (D3R; inhibition of quinpirole stimulation of mitogenesis) was 97.2%.

For `CC(C)(C)c1nc(N2CCN(CCCCNC(=O)c3cn4c(CO)cccc4n3)CC2)cc(C(F)(F)F)n1` [Compound 119, N-(4-(4-(2-(tert-Butyl)-6-(trifluoromethyl)pyrimidin-4-yl)piperazin-1-yl)butyl)-5-(hydroxymethyl)imidazo[1,2-a]pyridine-2-carboxamide], the Ki [1] was 45.4 ± 11.3 nM and the Ki [2] was 934 ± 222 nM.

In the case of `CC(C)(C)c1cc(N2CCN(CCCCNC(=O)c3cn4ccccc4n3)CC2)nc(C(C)(C)C)n1` [Compound 122, N-(4-(4-(2,6-Di-tert-butylpyrimidin-4-yl)piperazin-1-yl)butyl)imidazo[1,2-a]pyridine-2-carboxamide], the Ki [1] is reported as 18.8 ± 3.5 nM, the “D2/D3 (D3 selectivity ratio, D2 Ki/D3 Ki)” value [1] is reported as 19 and the Ki [2] is reported as 361 nM.

In the case of `CC(C)(C)c1nc(N2CCN(CCCCNC(=O)c3cn4ccccc4n3)CC2)c2ccccc2n1` [Compound 123, N-(4-(4-(2-(tert-Butyl)quinazolin-4-yl)piperazin-1-yl)butyl)imidazo[1,2-a]pyridine-2-carboxamide], the Ki [1] is reported as 78.2 ± 19.2 nM and the Ki [2] is reported as 1450 ± 275 nM.

With `O=C(NCCCCN1CCN(c2ccnc3cc(C(F)(F)F)ccc23)CC1)c1cn2ccccc2n1` [Compound 124, N-(4-(4-(7-(Trifluoromethyl)quinolin-4-yl)piperazin-1-yl)butyl)imidazo[1,2-a]pyridine-2-carboxamide] the Ki [1] was 98.7 ± 24.3 nM and the Ki [2] was 4980 ± 843 nM.

`O=C(NCCCCN1CCN(c2ccc3ccccc3n2)CC1)c1cn2cccnc2n1` [Compound 126, N-(4-(4-(Quinolin-2-yl)piperazin-1-yl)butyl)imidazo[1,2-a]pyrimidine-2-carboxamide] was tested, and the Ki [1] was 161 nM, the “D2/D3 (D3 selectivity ratio, D2 Ki/D3 Ki)” value [1] was 8 and the Ki [2] was 1260 ± 142 nM.

For `O=C(NCCCCN1CCN(c2ncnc3ccccc23)CC1)c1cn2ccccc2n1` [Compound 127, N-(4-(4-(Quinazolin-4-yl)piperazin-1-yl)butyl)imidazo[1,2-a]pyridine-2-carboxamide], the Ki [1] was 253 nM, the “D2/D3 (D3 selectivity ratio, D2 Ki/D3 Ki)” value [1] was 4 and the Ki [2] was 1130 ± 63.8 nM.

`O=C(NCCCCN1CCN(c2ccnc3ccccc23)CC1)c1nc2ccccn2c1Br` [Compound 128, 3-Bromo-N-(4-(4-(quinolin-4-yl)piperazin-1-yl)butyl)imidazo[1,2-a]pyridine-2-carboxamide] was tested, and the Ki [1] was 285 ± 77 nM, the “D2/D3 (D3 selectivity ratio, D2 Ki/D3 Ki)” value [1] was 8 and the Ki [2] was 2330 ± 785 nM.

In the case of `O=C(NCCCCN1CCN(c2ccnc3ccccc23)CC1)c1nc2ccccn2c1Cl` [Compound 129, 3-Chloro-N-(4-(4-(quinolin-4-yl)piperazin-1-yl)butyl)imidazo[1,2-a]pyridine-2-carboxamide], the Ki [1] is reported as 323 ± 75 nM, the “D2/D3 (D3 selectivity ratio, D2 Ki/D3 Ki)” value [1] is reported as 11 and the Ki [2] is reported as 3560 ± 1950 nM.
